Data set [1] is described as follows: Metabolic stability in mouse hepatocytes assessed as half life at 1 uM measured upto 30 mins. Type of data set: ADME, cell-based, Hepatocyte.
Data set [2] is described as follows: Metabolic stability in mouse hepatocytes assessed as intrinsic clearance per million cells at 1 uM measured upto 30 mins. The format is ADME, cell-based, Hepatocyte. To be noted: read-out: CLH.
Data set [3] is described as follows: Metabolic stability in human hepatocytes assessed as intrinsic clearance per million cells at 1 uM measured upto 30 mins. Type of data set: ADME, cell-based, Hepatocyte. Particulars: read-out: CLH.
Data set [4] is described as follows: Metabolic stability in human hepatocytes assessed as compound remaining at 1 uM measured after 30 mins. Type of data set: ADME, cell-based, Hepatocyte. To be noted: read-out: Stability.
The nature of data set [5]: Metabolic stability in human liver microsomes assessed as intrinsic clearance. Type of data set: ADME, Microsome. Particulars: read-out: CLH.
Data set [6] in a line: Metabolic stability in human hepatocytes assessed as half life at 1 uM measured upto 30 mins. The format is ADME, cell-based, Hepatocyte.
A short description of data set [7]: Metabolic stability in human liver microsomes assessed as half life. Type of data set: ADME, Microsome. For orientation: Liver microsomes are vesicles of endoplasmic reticulum, rich in cytochrome P450 enzymes.
Data set [8] is described as follows: Metabolic stability in mouse hepatocytes assessed as compound remaining at 1 uM measured after 30 mins. Particulars: read-out: Stability. Type of data set: ADME, cell-based, Hepatocyte.
The nature of data set [9]: Cytotoxicity against african green monkey Vero E6 cells incubated for 48 hrs. The format is toxicity, cell-based, Vero C1008. Particulars: chlorocebus sabaeus.
Data set [10] is described as follows: Metabolic stability in CD-1 mouse liver microsomes assessed as half life at 1 uM preincubated for 5 mins followed by NADPH addition and measured after 30 mins by LC-MS/MS analysis. Type of data set: ADME, Microsome. Particulars: time 35 min.
Data set [11] in a line: MRT(0 to infinity) in BALB/c mouse at 5 mg/kg, iv measured upto 48 hrs by LC-MS/MS analysis. To be noted: in vivo. Type of data set: ADME, organism-based.
Data set [12] in a line: MRT(0 to t) in BALB/c mouse at 5 mg/kg, iv measured upto 48 hrs by LC-MS/MS analysis. To be noted: in vivo. The format is ADME, organism-based.
The target in data set [13] is Replicase polyprotein 1ab (Severe acute respiratory syndrome coronavirus 2) (UniProt P0DTD1). Nature of the data set: Inhibition of SARS-CoV2 PLpro cleavage activity using 2Ub-K48 as substrate incubated overnight by SYPRO Ruby staining based SDS-PAGE analysis.
A short description of data set [14]: AUC(0 to infinity) in BALB/c mouse at 50 mg/kg, po measured upto 48 hrs by LC-MS/MS analysis. The format is ADME, organism-based. Particulars: in vivo.
The nature of data set [15]: Clearance in BALB/c mouse at 5 mg/kg, iv measured upto 48 hrs by LC-MS/MS analysis. The format is ADME, organism-based. To be noted: in vivo.
Data set [16] addresses Replicase polyprotein 1ab (Middle East respiratory syndrome-related coronavirus (isolate UnitedKingdom/H123990006/2012) (Betacoronavirus England 1) (Humancoronavirus EMC)) (UniProt K9N7C7). Nature of the data set: Inhibition of MERS-CoV PLpro using Z-RLRGG-AMC as substrate preincubated for 10 mins followed by substrate addition and measured after 20 sec shaking for 30 mins by time-resolved fluorescence assay. To be noted: time 40.3 min.

Data set [17] is described as follows: Metabolic stability in human liver microsomes assessed as half life at 1 uM preincubated for 5 mins followed by NADPH addition and measured after 30 mins by LC-MS/MS analysis. The format is ADME, Microsome. Particulars: time 35 min.
The target of data set [18] is T1, Replicase polyprotein 1ab (Severe acute respiratory syndrome coronavirus 2, UniProt P0DTD1). Kind of data set: Binding affinity to SARS-CoV2 PLpro by biolayer interferometry analysis.
Data set [19] is described as follows: Tmax in BALB/c mouse at 50 mg/kg, po measured upto 48 hrs by LC-MS/MS analysis. To be noted: in vivo. The format is ADME, organism-based.
The target of data set [20] is Replicase polyprotein 1ab (Severe acute respiratory syndrome coronavirus 2) (UniProt P0DTD1). Nature of the data set: Binding affinity to SARS-CoV2 PLpro assessed as stabilization by measuring increase melting temperature by thermal shift assay.
Data set [21] shares this target. Kind of data set: Inhibition of RLRGG binding to SARS-CoV2 PLpro.
Data set [22] in a line: MRT(0 to infinity) in BALB/c mouse at 50 mg/kg, po measured upto 48 hrs by LC-MS/MS analysis. Type of data set: ADME, organism-based. To be noted: in vivo.
Data set [23] can be described thus: Metabolic stability in human liver microsomes assessed as compound remaining at 1 uM preincubated for 5 mins followed by NADPH addition and measured after 30 mins by LC-MS/MS analysis. The format is ADME, Microsome. Particulars: read-out: Stability.
Data set [24] can be described thus: AUC(0 to infinity) in BALB/c mouse at 5 mg/kg, iv measured upto 48 hrs by LC-MS/MS analysis. The format is ADME, organism-based. To be noted: in vivo.
Data set [25] can be described thus: MRT(0 to t) in BALB/c mouse at 50 mg/kg, po measured upto 48 hrs by LC-MS/MS analysis. The format is ADME, organism-based. Particulars: in vivo.
Data set [26] in a line: Metabolic stability in CD-1 mouse liver microsomes assessed as compound remaining at 1 uM preincubated for 5 mins followed by NADPH addition and measured after 30 mins by LC-MS/MS analysis. The format is ADME, Microsome. To be noted: read-out: Stability.
The nature of data set [27]: Cmax in BALB/c mouse at 50 mg/kg, po measured upto 48 hrs by LC-MS/MS analysis. Type of data set: ADME, organism-based. To be noted: in vivo.
Data set [28] has as its target T1, Replicase polyprotein 1ab. Nature of the data set: Inhibition of SARS-CoV2 PLpro using Z-RLRGG-AMC as substrate preincubated for 10 mins followed by substrate addition and measured after 20 sec shaking for 30 mins by time-resolved fluorescence assay.
A short description of data set [29]: AUC(0 to t) in BALB/c mouse at 5 mg/kg, iv measured upto 48 hrs by LC-MS/MS analysis. Type of data set: ADME, organism-based. Particulars: in vivo.
Data set [30] concerns Severe acute respiratory syndrome-related coronavirus. Nature of the data set: Inhibition of SARS-CoV PLpro using Z-RLRGG-AMC as substrate preincubated for 10 mins followed by substrate addition and measured after 20 sec shaking for 30 mins by time-resolved fluorescence assay.
A short description of data set [31]: Half life in BALB/c mouse at 5 mg/kg, iv measured upto 48 hrs by LC-MS/MS analysis. The format is ADME, organism-based. Particulars: in vivo.
Data set [32] can be described thus: AUC(0 to t) in BALB/c mouse at 50 mg/kg, po measured upto 48 hrs by LC-MS/MS analysis. The format is ADME, organism-based. To be noted: in vivo.
Data set [33] in a line: Tmax in BALB/c mouse at 5 mg/kg, iv measured upto 48 hrs by LC-MS/MS analysis. Type of data set: ADME, organism-based. Particulars: in vivo.
Data set [34] in a line: Oral bioavailability in BALB/c mouse at 50 mg/kg measured upto 48 hrs by LC-MS/MS analysis. Type of data set: ADME, organism-based. To be noted: in vivo.
Data set [35] can be described thus: Cmax in BALB/c mouse at 5 mg/kg, iv measured upto 48 hrs by LC-MS/MS analysis. Type of data set: ADME, organism-based. Particulars: in vivo.
Data set [36] is described as follows: Half life in BALB/c mouse at 50 mg/kg, po measured upto 48 hrs by LC-MS/MS analysis. The format is ADME, organism-based. Particulars: in vivo.
The target in data set [37] is Replicase polyprotein 1ab (Severe acute respiratory syndrome coronavirus 2) (UniProt P0DTD1). Kind of data set: Potency index, ratio of GRL0617 IC50 to test compound IC50 for inhibition of SARS-CoV2 PLpro.

Each structure is given as a SMILES string. Calls of active or inactive are those of the source. The rule behind the calls is not given here.

As for `Cc1ccc(N)cc1C(=O)N[C@H](C)c1cccc2ccccc12`, the half-life at 1 µM in data set [1] worked out at 0.127 h; in [6] it was 0.75 h. Besides, the hepatocyte CLint at 1 µM in [2] is 91.5 µL/min/1e6 cells; in data set [3] it was 15.4 µL/min/1e6 cells. Further, the results for the remaining at 0.5 h, 1 µM in [4] and in data set [8] were 63% and 6.4%, respectively. Moreover, the CLint scaled in data set [5] was 27 mL/min/kg. In addition, the half-life in [7] stood at 0.44 h. For the same compound, in data set [9], the CC50 at 48 h was 253 µM.
On to `CC(c1nc(-c2ccc(-c3ccc(C(=O)O)s3)cc2)no1)c1cccc2ccccc12` (stereo not drawn), for which the half-life at 1 µM in data set [10] and in data set [17] was > 1.55 h throughout. Moreover, the figures for the MRT inf in [11] and in [22] were 5.12 h and 8.29 h, respectively. For the same compound, the MRT last at 48 h was 5.04 h in data set [12] and 8.05 h in data set [25]. For the same compound, the inhibition entry in [13], in data set [16], in [21] and in data set [30] was “Active” in each case. For the same compound, the AUC(0-inf) stood at 17500 ng·h/mL in [14] and 36300 ng·h/mL in [24]. Also, the clearance in data set [15] was 2.35 mL/min/kg. Further, in data set [18], the dissociation constant Kd was found to be 13.6 µM. In addition, the values for the Tmax in data set [19] and in data set [33] were 0.88 h and 0.17 h, respectively. Further, the result in [20] was Active. Moreover, the remaining at 0.5 h, 1 µM was 82.1% in [23] and 101% in data set [26]. Besides, the maximum concentration (Cmax) amounted to 3670 ng/mL in data set [27] and 14200 ng/mL in data set [35]. In data set [28], this compound showed an IC50 of 1.8 µM. The values for the AUC(0-t) at 48 h in data set [29] and in data set [32] were 36300 ng·h/mL and 17400 ng·h/mL, respectively. The half-life was 5.8 h in data set [31] and 6.5 h in data set [36]. In addition, the bioavailability in data set [34] was 4.8%. In addition, it took 170 µM to reach half-maximal cytotoxicity in data set [9] (CC50 at 48 h).
In the case of `CC(c1nc(-c2cc(NCc3ccc(C(=O)O)s3)cc(C(F)(F)F)c2)no1)c1cccc2ccccc12` (stereo not drawn), the half-life at 1 µM in data set [1] is 0.898 h; in [6], 1.54 h. This compound also came in with a Kd in [18] of 13.6 µM. The hepatocyte CLint at 1 µM was 12.9 µL/min/1e6 cells in data set [2] and 7.5 µL/min/1e6 cells in data set [3]. Further, the Ratio IC50 in data set [37] amounted to 10. Besides, the remaining at 0.5 h, 1 µM is 79.8% in data set [4] and 68% in [8]. The IC50 in data set [28] turned out to be 0.1 µM.
Regarding `Cc1ccc(-c2noc(C(C)c3ccc(-c4ccccc4)c(F)c3)n2)cc1NCc1ccc(C(=O)O)s1` (racemic), the half-life at 1 µM in data set [10] and in data set [17] was > 1.55 h each time. Besides, the MRT inf in [11] was 2.96 h; in [22], 2.72 h. For the same compound, the mean residence time (MRT last) at 48 h amounted to 2.74 h in [12] and 2.19 h in data set [25]. Besides, the inhibition result in [13], in [16], in data set [21] and in data set [30] was “Active” each time. The figures for the total exposure AUC(0-inf) in data set [14] and in data set [24] were 24400 ng·h/mL and 6260 ng·h/mL, respectively. The same compound showed a clearance in data set [15] of 13.5 mL/min/kg. Also, in data set [18], the dissociation constant Kd amounted to 13.6 µM. For the same compound, the Tmax was determined as 1.25 h in [19] and 0.05 h in data set [33]. In addition, the results for the remaining at 0.5 h, 1 µM in data set [23] and in [26] were 101% and 99.1%, respectively. Further, the maximum concentration (Cmax) in [27] is 10200 ng/mL; in data set [35], 10600 ng/mL. For the same compound, the IC50 in data set [28] is 1 µM. Further, the exposure AUC(0-t) at 48 h in [29] was 6210 ng·h/mL; in data set [32] it was 24300 ng·h/mL. The results for the half-life in data set [31] and in data set [36] were 4.2 h and 2.53 h, respectively. This compound also gave a bioavailability in data set [34] of 39.1%. This compound also displayed a CC50 at 48 h in data set [9] of 124 µM.

As a reminder, the half-life is the time in which the quantity being followed falls by half. Broadly, the CC50 is the concentration giving 50% cytotoxicity. As a reminder, the MRT inf is the average time that molecules of a dose stay in the body. As a reminder, the MRT last is the average time that molecules of a dose stay in the body. As a reminder, the AUC(0-inf) is the area under the concentration-time curve extrapolated to infinity. What is called clearance is the volume of plasma or blood freed of the substance per unit of time. The term Kd denotes the concentration at which binding is half-saturated. Broadly, the Tmax is the time from dosing to the highest level. The Cmax is the peak of the concentration-time curve. One may read the IC50 as the concentration at which inhibition is half-maximal. As usually defined, the AUC(0-t) is the area under the concentration-time curve up to a stated or last time point. For orientation: bioavailability means the share of a dose that reaches the circulation, judged against a reference dose that is usually intravenous.

The values above are taken from ChEMBL document CHEMBL5500399, “Design, Synthesis, and Biological Evaluation of 1,2,4-Oxadiazole Derivatives Containing an Aryl Carboxylic Acid Moiety as Potent Sarbecovirus Papain-like Protease Inhibitors” (J Med Chem, 2024).
